# Assay results reported in patent publication US20120220554A1, “Combretastatins for Prevention of Posterior Capsule Opacification” (OXIGENE, INC., priority 2010, published 2012).
# Tests used:
# BIE cells = experiment: MTT-based viable cell number assay in BIE cells; set-up: species or system bovine; conditions: single 30 min treatment with 1 μM CA4P; over 72 h following treatment (FIG. 6)
# Description: BMI-immortalized bovine lens epithelial cells (BIE cell line, produced in Roy Quinlan's Laboratory, University of Durham, UK), were seeded onto 12-well tissue culture plates in 10% fetal calf serum (FCS)-supplemented tissue culture medium (Sigma-Aldrich, UK) and kept at 37° C., 5% CO2 overnight. […] Viable cell number was assayed immediately and at 24 h, 48 h and 72 h after the end of exposure, using an MTT-based colorimetric assay (CellTiter95® Aqueous non-radioactive cell proliferation assay, Promega, UK), according to manufacturer's instructions. Briefly, the original cell culture medium was discarded from all wells and replaced by 500 µL of fresh medium, to which was added 100 µL of kit reagent. The wells were then returned to 37° C., 5% CO2 for 2 h 30 in the dark, after which […] were transferred from each well into a 96-well plate, which was read at 492 nm absorbance on an Anthos Lucy I (Anthos Labtech Instruments, Germany). The absorbance values were converted to cell numbers using standard curves specific to lens epithelial cells (determined in Roy Quinlan's laboratory, University of Durham, UK), and the viable cell numbers obtained were averaged with standard deviation. Significant differences in the values obtained between control and treated cells at different timepoints were assessed using an independent, two-tailed t-test.
# ERK 1/2 (p42 and p44) = experiment: Erk 1/2 phosphorylation immunoblot in primary lens epithelial cells; format: cell-based, bovine; conditions: primary cells after dissection; 30 min 1 mM CA4P; immediately and 1 h after end of exposure (FIG. 7)
# Description: Bovine eyes were obtained from Coast and County Meat Group (Felling, UK) on the day of culling and lenses were dissected out of the eyes under a sterile tissue culture hood as described below. After generous dousing in 70% ethanol, eyes were cut open using a major surgical blade (Swann-Morton, UK) via a single cut, parallel and posterior to the cornea-conjunctiva limit. The eye was then inverted and the vitreous removed. The lens was freed from the ciliary fibers and immediately placed anterior face down in a SYLGARD-covered (Dow Corning, Germany) well of a 12-well tissue culture plate (Greiner Bio-One, UK). The posterior side of the lens capsule was cut in a Y-shape fashion by a thin scalpel and the resulting flaps pulled back and pinned onto the SYLGARD. […]
# Immediately after dissection, primary lens epithelial cells were exposed for 30 min to 1 mM CA4P diluted in 0% FCS medium, after which they were returned to 0% FCS-supplemented medium. […] After total protein quantification of the extracts by Bicinchoninic Acid (BCA) assay (ThermoScientific, UK), 20 μg of extract were loaded per lane of a 12% acrylamide denaturing gel, which was run at 200V for 40 min, followed by blotting onto a nitrocellulose membrane at 0.8 mA/cm^2 for 2 h and blocking in either milk (Erk 1/2) or BSA (GAPDH) in TTBS (0.2% Tween (vol/vol), 150 mM NaCl, 20 mM Tris.HCl pH 7.4) for 1 h at room temperature. […]
# Phosphorylated p38 = Phosphorylated p38 level; format: cell-based, bovine; conditions: CA4P treatment (data not shown)
# Description: Phospho-Erk ½ levels were elevated immediately after the end of CA4P exposure in both control and treated cells and decreased 1 h after the end of CA4P exposure in both control and treated cells (FIG. 7). […] Therefore, it could be hypothesized that, in primary cells, a general stress response due to dissection will mask CA4P's effect on Erk phosphorylation. Phosphorylated p38 and JNK levels were not affected by CA4P treatment (data not shown).
compound,measurement,setting,value
"COc1ccc(/C=C\c2cc(OC)c(OC)c(OC)c2)cc1OP(=O)(O)O [CA4P, combretastatin A-4 phosphate]","number of BIE cells (viable cell number, MTT)",BIE cells,steady reduction in the number of BIE cells
same,Erk phosphorylation,ERK 1/2 (p42 and p44),not affected
same,Phosphorylated p38 levels,Phosphorylated p38,not affected
